Values joined by “and” are separate entries in the source; they are usually repeats but may differ in a detail not shown here. Equal entries are not always repeated. Where two headings read alike, the source gives them in different places. Marks after values point to notes of the source that are not given here.
How the values were obtained:
[1] = relative to propranolol; cited from earlier work
[2] = test system: pregnant crossbred female swine; assay: Example 2: induction of farrowing in pregnant gilts, oral CP161,258 (two doses or single dose) or intramuscular porcine relaxin; format: in vivo; details: for Hr, Dose d 112 To 1st pig ± SD / Hr, Dose d 113 To 1st pig ± SD: mean ± SD; for Piglet data: Born alive / Piglet data: Mummies / Piglet data: Stillborn: mean
Procedure: Animals. […] This BW was used to calculate the amount of test article to administer (T2 and T3).
Randomization of animals. Animals were ranked according to expected farrowing date and then randomly assigned to treatment within blocks of 4 animals each.
Test article administration. […] For treatment groups T2 and T3, test article was diluted (a suspension) to a concentration of 25 mg/ml in 50% propylene glycol and stored refrigerated (2-8° C.).
For treatment groups T2 and T3, animals were snared and test article was administered orally using a 60 ml syringe. […] One container of approximately 440 ml was mixed and used within each week of the 3 wk study. Each animal assigned to T2 or T3 also received approximately 30 ml of tap water to insure that test article was swallowed.
Porcine relaxin was diluted to a concentration of 1200 U/ml in sterile physiological saline on the first day of use. Diluted porcine relaxin was stored in a locked refrigerator and removed only when injections took place. Relaxin (1 ml-T4) was administered intramuscularly in the lower part of the ham of either leg with an 18-gauge, 1.5″ long needle attached to a 3 ml syringe.
Administration of test articles occurred between 7:30 am and 8:30 am on almost all days of the study.
Piglets. Response variables measured in this study were: hours from the 1st treatment to the birth of the 1st pig, number of piglets that were alive at birth (born alive), stillborn (normal appearance term piglet, but dead at time of birth), and mummies (smaller than littermates, decayed at birth). Animals were not processed (no iron shots, no clipping of needle teeth, no individual identification), but umbilical cords were clipped to […]. length if animals could not be euthanized within 2 days after birth.
Data/Analyses. […] Data were analyzed using a mixed model analysis with block as a random effect and treatment as a fixed effect (proc mixed, SAS).

[3] = test system: swine; details: 4 mg/kg body weight on days 111 and 112 post-breeding; cited from earlier work
[4] = test system: pregnant crossbred female swine; format: in vivo
Description: The objectives of this study were to determine the effects of administration of the progesterone receptor antagonist CP161,258 on the concentration of progesterone, the time interval from the 1st administration of test article on day 112 to birth of the 1st pig, the time interval from the 2nd administration of test article to birth of the 1st pig, and the status of piglets at birth (alive, stillborn, mummies).
Animals. Twenty pregnant crossbred female swine were purchased and delivered to Terre Haute on approximately day 102-107 of gestation. These animals were placed in farrowing crates in building 608W. Animals assigned to T2 averaged 195 kg BW. Animals (sows and piglets) were euthanized within 48 hr post-farrowing or on day 116 post-mating. There was no estimate of pre-weaning mortality in this study.
Randomization of animals. Animals were ranked according to expected farrowing date and randomly assigned to treatment within blocks of 2 animals each.
Test article administration. […] For treatment group T2, test article was diluted to a concentration of 25 mg/ml in 50% propylene glycol and water, and stored refrigerated (2-8° C.). Test article was administered orally after the morning blood sample was collected. The volume administered was approximately 30 ml to deliver a dosage of 4 mg/kg BW. Animals were administered with approximately 30 ml of water following administration of test article.
Early/late farrowing. […] If animals farrowed before day 114, the final blood sample was collected after farrowing was complete.
(§1) Data/Analyses. Response variables measured in this study were: hours from the time of the 1st dosing on day 112 post-breeding to birth of the 1st pig, hours from the 2nd dosing on day 113 to birth of the 1st pig, number of piglets that were alive at birth (born alive), stillborn (normal appearance term piglet, but dead at time of birth), and mummies (smaller than littermates, decayed at birth). The variables were analyzed using a mixed model analysis (proc mixed, SAS) with block as a random effect and treatment as a fixed effect. Concentrations of progesterone were analyzed using a repeated measure mixed model analysis, with block as a random effect and treatment as a fixed effect.

[5] = test system: progesterone in plasma; assay: Example 1: progesterone in plasma by RIA around farrowing; format: in vivo, swine; details: for Mean concentration of progesterone in plasma: n in parentheses; for p4 = concentration of progesterone in plasma: trt 2, individual animals
Procedure: Blood samples. Blood samples were collected from all animals (including T1 and T2) prior to administration of test article at 7:30 am on days 112 and 113. In addition, a PM blood sample was collected beginning at approximately 1:30 pm on days 112 and 113. Additional blood samples were collected at 7:30 am and 1:30 pm on subsequent days (>or =day 114). The final blood sample was collected after farrowing was complete. All blood samples (7 ml) were collected using sodium heparin vacutainers. Samples were refrigerated, centrifuged, and plasma was separated within 2 hr after collection. One aliquot of each sample was sent to Cornell Veterinary Diagnostic Lab for progesterone analyses by RIA.
as §1

[6] = T2: 4 mg/kg BW CP161,258 oral D 112 + 113, counted from (day 112)
[7] = T2: 4 mg/kg BW oral D 112 + 113
[8] = T3: 8 mg/kg BW CP161,258 oral D 113, counted from (day 113)
[9] = Treatment 2: 4 mg/kg oral days 112 and 113, individual animals, 4 mg/kg
[10] = Treatment 3: 8 mg/kg oral day 113, individual animals, 8 mg/kg
[11] = 4 mg/kg BW orally days 112 and 113
[12] = T2: 4 mg/kg BW CP161,258 orally D 112 + 113, mean ± SD, n in parentheses
[13] = T2: 4 mg/kg BW orally D 112 + 113, mean per litter

In the case of `CC(C)NCC(O)COc1cccc2[nH]c3ccccc3c12` (stereo not shown) [carazolol], the “membrane stabilizing potential, less than that of propranolol” value [1] is listed as 13 fold.
For `CC#CC1(O)CCC2C3CCC4=CC(=O)CCC4=C3C(c3ccc(N(C)C)cc3)CC21C` (stereo not shown) [CP161,258, 11-(4-Dimethylamino-phenyl)-17-hydroxy-13-methyl-17-prop-1-ynyl-1,2,6,7,8,11,12,13,14,15,16,17-dodecahydro-cyclopenta[a]phenanthren-3-one], the “Hr, Dose d 112 To 1st pig ± SD” value [2, 6] was 45 ± 26^a (13) Hr, the “Hr, Dose d 113 To 1st pig ± SD” value [2, 6] was 45 ± 26^b (13) Hr and the “Piglet data: Born alive” value [2, 7] was 9.2 (13). For the same molecule, the “Piglet data: Mummies” value [2, 7] was 0.4* (13), the “Piglet data: Stillborn” value [2, 7] was 0.7 (13) and the “number of stillborns lower compared with T1 non-medicated controls” value ([2]; T2: 4 mg/kg days 112 and 113, numerically, not statistically) was 0.4 pigs/litter. The “percent of animals that started farrowing on day 114” value ([2]; T2: 4 mg/kg on days 112 and 113 (4/13)) was 31%, the “percent of animals that started farrowing on day 113” value ([2]; T2: 4 mg/kg on days 112 and 113 (7/13)) was “Fifty-four” and the “Reason (animals with incomplete data)” value ([2]; T2 CP161,258 D 112 + 113, individual animals) was “Dystocia”. The “Hr, Dose d 112 To 1st pig ± SD” value [2, 8] was 33 ± 20 (13) Hr, the “Hr, Dose d 113 To 1st pig ± SD” value [2, 8] was 33 ± 20^c (13) Hr and the “percent of animals that started farrowing on day 114” value ([2]; T3: 8 mg/kg BW on day 113 (11/13)) was 85%. The “Piglet data: Born alive” value ([2]; T3: 8 mg/kg BW oral D 113) was 8.6 (13), the “Piglet data: Mummies” value ([2]; T3: 8 mg/kg BW oral D 113) was 0.2 (13) and the “Piglet data: Stillborn” value ([2]; T3: 8 mg/kg BW oral D 113) was 0.5 (13). The “number of stillborns reduced compared with T1 non-medicated controls” value ([2]; T3: single dose 8 mg/kg BW day 113, numerically, not statistically) was 0.6 pigs/litter, the “Born Alive” value [2, 9] was 8 and 13 (2×) and 10 (3×) and 9 (2×) and 7 and 2 and 12 and 6 and 11 and the “Hr, 1st treatment to 1st pig” value [2, 9] was 22.5 h and 24.5 h and 26.4 h and 28.6 h and 28.9 h and 32.1 h and 33.6 h and 45.7 h and 46 h and 46.3 h and 49.1 h and 96.3 h and 101 h. The Mummies [2, 9] was 0 (9×) and 2 and 1 (3×), the Still-born [2, 9] was 1 (9×) and 0 (4×) and the “Born Alive” value [2, 10] was 6 (3×) and 13 and 12 and 10 (3×) and 7 and 14 and 11 and 4 and 3. For the same molecule, the “Hr, 1st treatment to 1st pig” value [2, 10] was 49 h and 96 h and 21.2 h and 23.7 h and 24.4 h and 24.5 h and 24.7 h and 25.1 h and 25.2 h and 25.3 h and 26.3 h and 27.1 h and 34.4 h and 93.8 h, the Mummies [2, 10] was 0 (10×) and 1 (3×) and the Still-born [2, 10] was 0 (8×) and 2 (2×) and 1 (3×). The “percent of animals that farrowed 24 to 27 hr post-dosing” value ([2]; single dose of 8 mg/kg BW) was 70%, the “percent of animals that farrowed between 21 and 35 hr after dosing” value ([2]; single dose of 8 mg/kg BW) was 85% and the induction of parturition [3] was “effectively induced parturition”. The “time interval from the 1st administration to the onset of parturition, relative to non-medicated controls” value ([4]; 4 mg/kg BW days 112 and 113 of gestation) was “half”, the “number of piglets born dead (stillborns), mean” value [4, 11] was 0.1 pigs/litter and the “percent of animals that farrowed the day following the first treatment (day 113, within 1 day)” value [4, 11] was 44% and 45%. For the same molecule, the “percent of animals with onset of parturition within 2 days” value [4, 11] was 100%, the “percent of treated animals that farrowed on day 114” value [4, 11] was 56% and the “Hr, 1st dose d 112 To 1st pig ± SD” value [4, 12] was 36 ± 15 (9) Hr. The “Hr, 2nd dose d 113 To 1st pig ± SD” value [4, 12] was 36 ± 15 (9) Hr, the “Piglet data: Born alive” value [4, 13] was 8.9 (9) and the “Piglet data: Mummies” value [4, 13] was 0 (9). For the same molecule, the “Piglet data: Stillborn” value [4, 13] was 0.1* (9), the Mummified fetuses ([4]; T2: 4 mg/kg orally days 112 and 113, individual animals) was 0 and the “concentrations of progesterone in plasma in the −24 hr period preceding parturition, compared to non-medicated controls” value ([5]; 4 mg/kg orally days 112 and 113) was “remained higher”. For the same molecule, the “Mean concentration of progesterone in plasma” value (“Mean concentration” below) ([5]; Sample time 0 (immediately before farrowing), T2) was 7.5 (9) ng/ml, the “Mean concentration” value ([5]; Sample time 1 (within 12 hr after farrowing was complete), T2) was 1.5 (9) ng/ml and the “Mean concentration” value ([5]; Sample time −1 relative to farrowing, T2) was 12.3* (9) ng/ml. The “Mean concentration” value ([5]; Sample time −2 relative to farrowing, T2) was 14.0* (8) ng/ml, the “Mean concentration” value ([5]; Sample time −3 relative to farrowing, T2) was 14.5 (5) ng/ml and the “Mean concentration” value ([5]; Sample time −4 relative to farrowing, T2 4 mg/kg orally days 112 and 113) was 14.2 (2) ng/ml. For the same molecule, the “p4 = concentration of progesterone in plasma” value (“p4 = concentration” for short) ([5]; time 0 (immediately before farrowing)) was 5.76 ng/mL and 8.12 ng/mL and 5.62 ng/mL and 9.45 ng/mL and 13.37 ng/mL and 4.95 ng/mL and 9.41 ng/mL and 5.64 ng/mL and 7.17 ng/mL, the “p4 = concentration” value ([5]; time 1 (within 12 hr after farrowing was complete)) was 2.05 ng/mL and 1.34 ng/mL and 0.82 ng/mL and 1.62 ng/mL and 1.95 ng/mL and 4.50 ng/mL and 1.64 ng/mL and 1.11 ng/mL and 0.79 ng/mL and the “p4 = concentration” value ([5]; time −1) was 8.27 ng/mL and 13.76 ng/mL and 13.88 ng/mL and 15.46 ng/mL and 18.89 ng/mL and 7.63 ng/mL and 8.18 ng/mL and 10.70 ng/mL and 16.70 ng/mL. The “p4 = concentration” value ([5]; time −2) was 12.42 ng/mL and 17.27 ng/mL and 13.89 ng/mL and 15.47 ng/mL and 13.96 ng/mL and 15.17 ng/mL and 10.92 ng/mL and 17.76 ng/mL, the “p4 = concentration” value ([5]; time −3) was 14.93 ng/mL and 13.88 ng/mL and 15.28 ng/mL and 14.66 ng/mL and 16.68 ng/mL and the “p4 = concentration” value ([5]; time −4) was 15.25 ng/mL and 13.49 ng/mL.

Source: US20040074447A1, “Methods of reducing incidence of stillborn pigs by using progesterone receptor antagonists” (priority 2002, published 2004)
